Reference: patent US20100120778A1, “QUINOXALINE-BASED LXR MODULATORS” (Wyeth, priority 2008, published 2010)

Assays:
human LXRβ = biological target: T1, human LXRβ (Homo sapiens, UniProt P55055); test: Ligand-binding test procedure for human LXRβ (3H T0901317 tracer, flash plates); conditions: biotinylated hLXRβ, tracer 3H T0901317, +4° C. over night
T1 construct: biotin (biotinylated); made in house; host or cells: E. coli
T1 sequence (P55055 1-460): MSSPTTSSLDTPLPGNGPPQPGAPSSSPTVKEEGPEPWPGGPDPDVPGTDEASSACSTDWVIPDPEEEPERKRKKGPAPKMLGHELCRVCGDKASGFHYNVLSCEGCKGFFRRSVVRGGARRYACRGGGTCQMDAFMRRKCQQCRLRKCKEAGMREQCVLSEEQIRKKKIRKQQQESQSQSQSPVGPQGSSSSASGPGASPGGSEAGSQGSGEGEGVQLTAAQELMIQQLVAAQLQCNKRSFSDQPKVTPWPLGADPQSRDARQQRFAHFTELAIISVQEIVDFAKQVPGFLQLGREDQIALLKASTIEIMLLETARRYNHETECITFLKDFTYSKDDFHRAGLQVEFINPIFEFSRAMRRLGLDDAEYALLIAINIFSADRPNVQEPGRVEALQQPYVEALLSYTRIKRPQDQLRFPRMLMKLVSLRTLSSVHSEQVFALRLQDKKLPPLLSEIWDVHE
Method: I. Ligand-Binding Test Procedure for Human LXRβ.
Receptor source: E. coli extracted from cells expressing biotinylated hLXRβ. Extract was made in a similar buffer as above, but with 50 mM TRIS.
Washed streptavidin and coated flash plates with wash buffer. Diluted receptor extract to give Bmax˜4000 cpm and add to the wells. Wrapped the plates in aluminum foil and stored them at +4° C. overnight.
(§1) Made a dilution series in DMSO of the test ligands. Made a 5 nM solution of the radioactive tracer in buffer. Mixed 250 μl diluted tracer with 5 μl of the test ligand from each concentration of the dilution series. Washed the receptor-coated flash plates. Added 200 μl per well of the ligand/radiolabel mixture to the receptor-coated flash plates. Wrapped the plates in aluminum foil and incubate at +4° C. over night.
Aspirated wells, and washed the flashed plates. Sealed the plate.
Measured the remaining radioactivity in the plate.

human LXRα = biological target: T2, human LXRα (Homo sapiens, UniProt Q13133); test: Ligand-binding test procedure for human LXRα (3H T0901317 tracer, flash plates); conditions: biotinylated hLXRα, tracer 3H T0901317, +4° C. over night
T2 construct: biotin (biotinylated); made in house; host or cells: E. coli
T2 sequence (Q13133 1-447): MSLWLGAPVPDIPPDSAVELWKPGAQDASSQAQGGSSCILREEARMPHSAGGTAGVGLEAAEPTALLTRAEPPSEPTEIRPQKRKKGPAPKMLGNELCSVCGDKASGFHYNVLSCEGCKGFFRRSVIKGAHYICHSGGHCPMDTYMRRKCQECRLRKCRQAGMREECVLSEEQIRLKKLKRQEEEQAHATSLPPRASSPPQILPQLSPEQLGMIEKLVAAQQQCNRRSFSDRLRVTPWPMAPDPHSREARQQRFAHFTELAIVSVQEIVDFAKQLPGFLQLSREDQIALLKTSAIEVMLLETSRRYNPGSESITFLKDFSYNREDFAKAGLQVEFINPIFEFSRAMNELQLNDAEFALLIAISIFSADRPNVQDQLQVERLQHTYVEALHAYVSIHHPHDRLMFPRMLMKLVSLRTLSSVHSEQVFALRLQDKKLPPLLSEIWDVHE
Method: II. Ligand-Binding Test Procedure for Human LXRα.
Receptor source: E. coli extract from cells expressing biotinylated hLXRα. Extract was made in a similar buffer as above, but with 50 mM TRIS.
Washed streptavidin and coated flash plates with wash buffer. Diluted receptor extract to give Bmax˜4000 cpm and add to the wells. Wrapped the plates in aluminum foil and stored them at +4° C. over night.
as §1
Aspirated wells, and wash the flashed plates. Sealed the plate. Measured the remaining radioactivity in the plate.

SMILES	IC50 (human LXRβ) [nM]	IC50 (human LXRα) [nM]
Cc1nc2cccc(C(F)(F)F)c2nc1-c1cc(Oc2cc(Cl)cc(S(C)(=O)=O)c2)ccc1Cl [Example 65, 3-{2-chloro-5-[3-chloro-5-(methylsulfonyl)phenoxy]phenyl}-2-methyl-5-(trifluoromethyl)-quinoxaline]	453	> 1000
Cc1nc2ccccc2nc1-c1cc(Oc2cccc(S(C)(=O)=O)c2)ccc1Cl [Example 66, 2-{2-chloro-5-[3-(methylsulfonyl)phenoxy]phenyl}-3-methylquinoxaline]	361	> 1000
Cc1nc2cccc(Cl)c2nc1-c1ccc(-c2cccc(S(C)(=O)=O)c2)cc1 [Example 68, 5-chloro-2-methyl-3-[3′-(methylsulfonyl)biphenyl-4-yl]quinoxaline]	235	> 1000
Cc1nc2cccc(C#N)c2nc1-c1ccc(-c2cccc(S(C)(=O)=O)c2)cc1 [Example 72, 2-methyl-3-[3′-(methylsulfonyl)biphenyl-4-yl]quinoxaline-5-carbonitrile]	3020	> 1000
Cc1nc2c(C(F)(F)F)cccc2nc1-c1ccc(-c2cncc(S(C)(=O)=O)c2)cc1 [Example 74, 3-methyl-2-{4-[5-(methylsulfonyl)pyridin-3-yl]phenyl}-5-(trifluoromethyl)quinoxaline]	> 1000	> 1000
Cc1nc2c(C(F)(F)F)cccc2nc1-c1cc(Oc2cccc(S(=O)(=O)CCCF)c2)ccc1Cl [Example 75, 2-(2-chloro-5-{3-[(3-fluoropropyl)sulfonyl]phenoxy}phenyl)-3-methyl-5-(trifluoromethyl)-quinoxaline]	287	2190
CS(=O)(=O)c1cccc(-c2cccc(Oc3cnc4c(Cl)cccc4n3)c2)c1 [Example 78, 5-chloro-2-{[3′-(methylsulfonyl)biphenyl-3-yl]oxy}quinoxaline]	263	> 1000
CS(=O)(=O)c1cccc(-c2ccc(Oc3cnc4c(Cl)cccc4n3)cc2)c1 [Example 79, 5-chloro-2-{[3′-(methylsulfonyl)biphenyl-4-yl]oxy}quinoxaline]	> 1000	> 1000
CCS(=O)(=O)c1cccc(-c2cccc(Oc3nc4cccc(Cl)c4nc3C)c2)c1 [Example 81, 5-chloro-2-{[3′-(ethylsulfonyl)biphenyl-3-yl]oxy}-3-methylquinoxaline]	240	> 1000
Cc1nc2c(Cl)cccc2nc1Oc1ccc(-c2cccc(S(C)(=O)=O)c2)cc1 [Example 82, 5-chloro-3-methyl-2-{[3′-(methylsulfonyl)biphenyl-4-yl]oxy}quinoxaline]	1030	> 1000
CCS(=O)(=O)c1cccc(-c2ccc(Oc3nc4cccc(Cl)c4nc3C)cc2)c1 [Example 83, 5-chloro-2-{[3′-(ethylsulfonyl)biphenyl-4-yl]oxy}-3-methylquinoxaline]	> 1000	> 1000
Cc1nc2c(Cl)cccc2nc1Oc1ccc(-c2cccc(NS(C)(=O)=O)c2)cc1 [Example 93, N-{4′-[(5-chloro-3-methylquinoxalin-2-yl)oxy]biphenyl-3-yl}methanesulfonamide]	869	3530

Stronger by IC50 (human LXRβ), values ahead:

IC50 (human LXRβ) [nM]	IC50 (human LXRα) [nM]	SMILES
63.5	810	Cc1nc2c(C(F)(F)F)cccc2nc1-c1cc(Oc2cccc(S(=O)(=O)CCCO)c2)ccc1Cl [Example 58, 3-[(3-{4-chloro-3-[3-methyl-5-(trifluoromethyl)quinoxalin-2-yl]phenoxy}phenyl)sulfonyl]-propan-1-ol]
32	249	Cc1nc2c(C(F)(F)F)cccc2nc1-c1cc(Oc2cc(F)cc(S(C)(=O)=O)c2)ccc1Cl [Example 59, 2-{2-chloro-5-[3-fluoro-5-(methylsulfonyl)phenoxy]phenyl}-3-methyl-5-(trifluoromethyl)-quinoxaline]
159	> 1000	Cc1nc2c(C(F)(F)F)cccc2nc1-c1cc(Oc2cc(Cl)cc(S(C)(=O)=O)c2)ccc1Cl [Example 60, 2-{2-chloro-5-[3-chloro-5-(methylsulfonyl)phenoxy]phenyl}-3-methyl-5-(trifluoromethyl)-quinoxaline]
29	366	CCS(=O)(=O)c1cccc(Oc2ccc(Cl)c(-c3nc4c(C(F)(F)F)cccc4nc3C)c2)c1 [Example 61, 3-{2-chloro-5-[3-(ethylsulfonyl)phenoxy]phenyl}-2-methyl-5-(trifluoromethyl)quinoxaline]
38	876	Cc1nc2cccc(C(F)(F)F)c2nc1-c1cc(Oc2cccc(S(=O)(=O)C(C)C)c2)ccc1Cl [Example 62, 3-(2-chloro-5-{3-[(1-methylethyl)sulfonyl]phenoxy}phenyl)-2-methyl-5-(trifluoromethyl)quinoxaline]
48	979	Cc1nc2cccc(C(F)(F)F)c2nc1-c1cc(Oc2cccc(S(=O)(=O)CCCO)c2)ccc1Cl [Example 63, 3-[(3-{4-chloro-3-[3-methyl-8-(trifluoromethyl)quinoxalin-2-yl]phenoxy}phenyl)sulfonyl]-propan-1-ol]
89	638	Cc1nc2cccc(C(F)(F)F)c2nc1-c1cc(Oc2cc(F)cc(S(C)(=O)=O)c2)ccc1Cl [Example 64, 3-{2-chloro-5-[3-fluoro-5-(methylsulfonyl)phenoxy]phenyl}-2-methyl-5-(trifluoromethyl)-quinoxaline]
123	> 1000	Cc1nc2cccc(C(F)(F)F)c2nc1-c1ccc(-c2cncc(S(C)(=O)=O)c2)cc1 [Example 73, 2-methyl-3-{4-[5-(methylsulfonyl)pyridin-3-yl]phenyl}-5-(trifluoromethyl)quinoxaline]
204	401	Cc1nc2c(C(F)(F)F)cccc2nc1-c1cc(Oc2cccc(S(=O)(=O)CCCCl)c2)ccc1Cl [Example 76, 2-(2-chloro-5-{3-[(3-chloropropyl)sulfonyl]phenoxy}phenyl)-3-methyl-5-(trifluoromethyl)-quinoxaline]
108	818	Cc1nc2c(Cl)cccc2nc1Oc1cccc(-c2cccc(S(C)(=O)=O)c2)c1 [Example 80, 5-chloro-3-methyl-2-{[3′-(methylsulfonyl)biphenyl-3-yl]oxy}quinoxaline]
